From patent publication US8871767B2, “2-arylimidazo[1,2-B]pyridazine, 2-phenylimidazo[1,2-A]pyridine, and 2-phenylimidazo[1,2-A]pyrazine derivatives” (Hengrui (USA) Ltd., priority 2010, dated 2014) come the findings set out here.

Where two headings read alike, the source gives them in different places.

For experiment [1], the system named is Hedgehog pathway activation on 10T1/2/Smo#3 cells (C3H10T1/2 cells transfected with human Smoothened receptor). The experiment can be described thus: Hedgehog pathway activation on 10T1/2/Smo#3 cells measured by ALP activity. Type of experiment: cell-based. To be noted: Mus musculus, C3H 10T1/2, 10T1/2/Smo#3 cells. The protocol:
Hedgehog conditioned media was obtained by transfecting 293H cells with the full length gene encoding human Sonic Hedgehog (hShh) inserted into the pCMV6 expression vector, which contains a neomycin selectable marker and expresses the protein of interest with a C-terminal FLAG affinity tag. After selection in G418 containing media, conditioned media from Hedgehog expressing clones were tested for the ability to activate the hedgehog-responsive GLi-luciferase reporter in the Shh Light II cell line obtained by license from John Hopkins University (Taipale J, et al. Effects of oncogenic mutations in Smoothened and Patched can be reversed by cyclopamine. Nature 406: 1005-1009, 2000).
C3H10T1/2 cells were transfected with a pCMV expression vector containing the full length gene sequence encoding the human Smoothened receptor. Pooled cells, designated 10T1/2/Smo#3, growing in G418 selection media responded to activation by 10-20% conditioned hShh media with an approximate 5-10 fold increase in alkaline phosphaste (ALP) activity over untransfected parent C3H10T1/2 cells as measured by the conversion of the free acid of 4-methylumbelliferyl phosphate to a fluorescent product.
A test compound library was screened against hShh and 500 nM SAG (a direct agonist of the Smoothened receptor) activated 10T1/2/Smo#3 cells and Shh Light II reporter cells for the ability to block Hedgehog pathway activation. Concurrently, cell viability was measured by utilizing Celltiter-Blue® (Promega, Madison Wis.) viability assay. Active compounds were defined as those that inhibited Hedgehog signaling by greater than 50% with no concurrent loss in cell viability.
Their inhibitory activity against Hedgehog pathway activation on 10T1/2/Smo#3 cells as measured by ALP activity and Shh Light II reporter cells as measured by luciferase activity is shown in Table 1 below. In Table 1, +++ stands for an IC50 value that is less than 0.3 μM, ++ between 0.3 and 3 μM, + between 3 and 30 μM.
Additional data for compounds of the invention is shown below in Table 2. Their inhibitory activities against Hedgehog pathway activation are shown as IC50 values in μM on 10T1/2/Smo#3 cells as measured by ALP activity, or on Shh Light II reporter cells as measured by luciferase activity (hShh activation).

The subject of experiment [2] is Hedgehog pathway activation (GLi-luciferase reporter) in Shh Light II reporter cells. The experiment can be described thus: Hedgehog pathway activation on Shh Light II reporter cells measured by luciferase activity. To be noted: Mus musculus, Shh Light II. It counts as cell-based. In outline:
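Shh Light II reporter cells carrying a hedgehog-responsive GLi-luciferase reporter were stimulated either with 500 nM SAG, a direct Smoothened agonist, or with conditioned media containing human Sonic Hedgehog (hShh). Test compounds were evaluated for blocking this pathway activation, quantified by luciferase activity. Cell viability was monitored in parallel with the Celltiter-Blue® assay.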

Where [3] appears, read: hShh activation, ALP activity, read-out: 10T1/2/Smo#3 ALP activity (hShh Activation).
Where [4] appears, read: measured by ALP activity, read-out: ALP (IC50, inhibition of Hedgehog pathway activation).
Setting [5] is: SAG activation (500 nM SAG), read-out: Shh Light II luciferase activity (SAG activation).
[6] abbreviates: hShh activation, read-out: Shh (IC50, inhibition of Hedgehog pathway activation).
The mark [7] stands for this setting: hShh activation, read-out: Shh Light II luciferase activity (hShh activation).

For `CC(C)(C)C(=O)Nc1cc(-c2cn3cc(-c4ccccc4F)ccc3n2)ccc1C(F)(F)F` [Example 83, N-(5-(6-(2-fluorophenyl)imidazo[1,2-a]pyridin-2-yl)-2-(trifluoromethyl)phenyl)pivalamide], the IC50 in experiment [1] (setting [3]) is 300 to 3000 nM; in experiment [1] (setting [4]), 1350 nM; in experiment [2] (setting [5]), 300 to 3000 nM; in experiment [2] (setting [6]) it was 1010 nM; in experiment [2] (setting [7]) it was 300 to 3000 nM.
On to `Cc1ccc(-c2cn3nc(-c4ccc(S(N)(=O)=O)cc4C(F)(F)F)ccc3n2)cc1NC(=O)C(C)(C)C` [compound 535], for which the IC50 in experiment [1] (setting [4]) is 139 nM; in experiment [2] (setting [6]), 56 nM.
Take `Cc1ccc(-c2cn3nc(-c4ccc(C(N)=O)cc4F)ccc3n2)cc1NC(=O)C(C)(C)C` [compound 541]: the IC50 in experiment [1] (setting [4]) is 181 nM; in experiment [2] (setting [6]), 255 nM.
Consider `CC(C)(C)C(=O)Nc1cc(-c2cn3nc(-c4cccnc4C(F)(F)F)ccc3n2)ccc1C1CC1` [Example 644, N-(2-cyclopropyl-5-(6-(2-(trifluoromethyl)pyridin-3-yl)imidazo[1,2-b]pyridazin-2-yl)phenyl)pivalamide], for which the IC50 was found to be 15 nM in experiment [1] (setting [4]) and 72 nM in experiment [2] (setting [6]).
Take `O=C(Nc1cc(-c2cn3nc(-c4cccnc4C(F)(F)F)ccc3n2)ccc1F)C1CC1` [Example 681, N-(2-fluoro-5-(6-(2-(trifluoromethyl)pyridin-3-yl)imidazo[1,2-b]pyridazin-2-yl)phenyl)cyclopropanecarboxamide]: the IC50 in experiment [1] (setting [4]) was 6560 nM; in experiment [2] (setting [6]) it was 976 nM.
For the compound `Cc1c(-c2ccccc2)nc2ccc(N3CCN(Cc4ccc(F)cc4)CC3)nn12` [Example 134, 6-(4-(4-fluorobenzyl)piperazin-1-yl)-3-methyl-2-phenylimidazo[1,2-b]pyridazine], the IC50 is under 300 nM in experiment [1] (setting [3]); 232 nM in experiment [1] (setting [4]); 300 to 3000 nM in experiment [2] (setting [5]); 926 nM in experiment [2] (setting [6]); 300 to 3000 nM in experiment [2] (setting [7]).
Take `Cc1ccc(-c2cn3nc(-c4cccnc4C(F)(F)F)ccc3n2)cc1NC(=O)C1(C)CC1` [compound 518, 1-methyl-N-(2-methyl-5-(6-(2-(trifluoromethyl)pyridin-3-yl)imidazo[1,2-b]pyridazin-2-yl)phenyl)cyclopropanecarboxamide]: the IC50 in experiment [1] (setting [3]) was under 300 nM; in experiment [1] (setting [4]), 71 nM; in experiment [2] (setting [5]) it was under 300 nM; in experiment [2] (setting [6]), 16 nM; in experiment [2] (setting [7]), under 300 nM.
As to `COc1ccc2nc(-c3ccc(C)c(NC(=O)C(C)(C)C)c3)c(Cl)n2n1` [Example 109, N-(5-(3-chloro-6-methoxyimidazo[1,2-b]pyridazin-2-yl)-2-methylphenyl)pivalamide], the IC50 is 3000 to 30000 nM in experiment [1] (setting [3]); 7000 nM in experiment [1] (setting [4]); 3000 to 30000 nM in experiment [2] (setting [5]); 2650 nM in experiment [2] (setting [6]); 300 to 3000 nM in experiment [2] (setting [7]).
Regarding `COc1ccc2nc(-c3ccc(OC(F)(F)F)c(NC(=O)C(C)(C)C)c3)cn2n1` [Example 247, N-(5-(6-methoxyimidazo[1,2-b]pyridazin-2-yl)-2-(trifluoromethoxy)phenyl)pivalamide], the IC50 in experiment [1] (setting [3]) is under 300 nM; in experiment [1] (setting [4]), 1860 nM; in experiment [2] (setting [5]), under 300 nM; in experiment [2] (setting [7]) it was under 300 nM.
With `CCOC(=O)CCCCCCOc1cccc(-c2ccc3nc(-c4ccc(C)c(NC(=O)C(C)(C)C)c4)cn3n2)c1C(F)(F)F` [Example 423, ethyl 7-(3-(2-(4-methyl-3-pivalamidophenyl)imidazo[1,2-b]pyridazin-6-yl)-2-(trifluoromethyl)phenoxy)heptanoate], the IC50 is 265 nM in experiment [1] (setting [4]) and 1560 nM in experiment [2] (setting [6]).
On the same counts, the results for `CC(C)OCCOc1ccc2nc(-c3ccc(C(F)(F)F)c(NC(=O)C(C)(C)C)c3)cn2n1` [Example 374, N-(5-(6-(2-isopropoxyethoxy)imidazo[1,2-b]pyridazin-2-yl)-2-(trifluoromethyl)phenyl)pivalamide] are 1280 nM and 634 nM.
